Experimental data: article PMC3410856, “Structural Analysis of Specific Metal Chelating Inhibitor Binding to the Endonuclease Domain of Influenza pH1N1 (2009) Polymerase” (PLoS Pathogens, 2012)
Where two headings read alike, the source gives them in different places.

What was measured:
[1] = in vitro; settings: dog
[2] = test system: Influenza A virus A/Aichi/2/68 (H3N2); experiment: microbe, parasite or virus in culture; type: cell-based; settings: MDCK cells, MOI 0.05, 48 h, CellTiter-Glo, 95% confidence intervals; for IC50: Influenza A virus, H3N2, read-out: antiviral activity IC50 (reduction of virus induced cytopathic effect)
[3] = biological target: T1, H1N1 PA-Nter (Influenza A virus, UniProt C3W5S0); type: binding
T1 construct: PA-N-ter (residues 1–198) from A/California/04/2009-pH1N1; made in house; host or cells: E. coli BL21(DE3)

[4] = biological target: influenza polymerase; settings: read-out: IC50 in vitro cap-dependent transcriptase assay; cited from earlier work

| Structure (SMILES) | CC50 [1] | IC50 [2] | Tm (apparent melting temperature) [3] | IC50 [4] | Tm (apparent melting temperature) ([3]; 5 µM PA-Nter, 500 µM inhibitor, no ligand 53.5) | antiviral activity IC50 (reduction of virus induced cytopathic effect) [2] | antiviral activity IC50 (reduction of virus induced cytopathic effect) ([2]; listed as DBPA) |
| --- | --- | --- | --- | --- | --- | --- | --- |
| O=C(O[C@@H]1Cc2c(O)cc(O)cc2O[C@@H]1c1cc(O)c(O)c(O)c1)c1cc(O)c(O)c(O)c1 [EGCG, [(2R,3R)-5,7-dihydroxy-2-(3,4,5-trihydroxyphenyl)chroman-3-yl]3,4,5-trihydroxybenzoate] | 54.7 ± 4.5 µM | 1.1 ± 0.4 µM |  |  |  |  |  |
| O=C(O)/C(O)=C/C(=O)C1(Cc2ccc(Cl)cc2)CCCN(S(=O)(=O)Cc2ccccc2)C1 (stereo not shown) [R05-1, 4-[3-[(4-chlorophenyl)methyl]-1-(phenylmethylsulpho)-3-piperidinyl]-2-hydroxy-4-oxo-2-butenoic acid] | > 100 µM | 20.4 ± 3 µM | 69 °C | 190 nM |  |  |  |
| O=C(O)/C(O)=C/C(=O)C1(Cc2ccc(Cl)cc2)CCCN(Cc2ccccc2)C1 (stereo not shown) [R05-3, 4-[N-benzyl-3-(4-chlorobenzyl)piperidin-3-yl]2,4-dioxobutanoic acid] | 79.8 ± 11.5 µM | 19.9 ± 2 µM | 69 °C |  |  |  |  |
| O=C(O)/C(O)=C/C(=O)C1(Cc2ccc(Cl)cc2)CCN(CC2CCCCC2)CC1 [R05-2, 4-[1-cyclohexylmethyl-4-(p-chlorobenzyl)piperidin-4-yl]2,4-dioxobutanoic acid] | > 50 µM | 15.9 ± 4 µM | 71 °C |  |  |  |  |
| O=C(O)C(=O)CC(=O)c1ccccc1 [DPBA, 2,4-dioxo-4-phenylbutanoic acid] | > 200 µM |  |  |  | 65 °C | inactive | did not show any inhibitory effect |
